Results taken from ChEMBL document CHEMBL1201862, “PubChem BioAssay data set” (2004).
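Where inhibition never reached the appropriate level, the endpoint shown equals the highest concentration tested. Otherwise, values were interpolated linearly from a five-concentration, 48-hour dose response in 96-well plates. Abbreviation: GI50, concentration required for 50% inhibition of growth.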 The source made the active and inactive calls. No stated cut-off is given here; in the data, active = GI50 up to about 1.1 µM and inactive = higher.

Key:
Assay in all cases: growth of human tumour cells (NCI), 48 h
CAKI-1 = test system: CAKI-1
HL-60 = test system: HL-60
IGROV-1 = test system: IGROV-1
LOX IMVI = test system: LOX IMVI
M14 = test system: M14
NCI-H23 = test system: NCI-H23
SF-539 = test system: SF-539
SK-MEL-2 = test system: SK-MEL-2
SNB-19 = test system: SNB-19
SW-620 = test system: SW-620
UACC-257 = test system: UACC-257
HCC 2998 = test system: HCC 2998
RPMI-8226 = test system: RPMI-8226
SNB-75 = test system: SNB-75

Measured: GI50

O=c1[nH]c(=O)n(C2CC(O)C(CO)O2)cc1/C=C/Br (stereo not drawn)
inactive: CAKI-1 > 100 µM | HL-60 > 100 µM | IGROV-1 > 100 µM | LOX IMVI > 100 µM | M14 > 100 µM | NCI-H23 > 100 µM | SF-539 > 100 µM | SK-MEL-2 > 100 µM | SNB-19 > 100 µM | SW-620 > 100 µM | UACC-257 > 100 µM

CNCCCCN(C)/[N+]([O-])=N\O
inactive: CAKI-1 > 100 µM | HCC 2998 > 100 µM | HL-60 > 100 µM | IGROV-1 > 100 µM | M14 > 100 µM | NCI-H23 > 100 µM | RPMI-8226 > 100 µM | SF-539 > 100 µM | SK-MEL-2 > 100 µM | SNB-19 > 100 µM | SNB-75 49.2 µM | SW-620 > 100 µM | UACC-257 > 100 µM

O=C(c1c(O)cc(O)cc1O)C1Cc2ccccc21 (stereo not drawn)
inactive: CAKI-1 39.5 µM | HCC 2998 > 100 µM | HL-60 74 µM | IGROV-1 > 100 µM | LOX IMVI > 100 µM | M14 > 100 µM | RPMI-8226 58.1 µM | SF-539 32.2 µM | SK-MEL-2 > 100 µM | SNB-19 64 µM | SNB-75 13.4 µM | SW-620 > 100 µM | UACC-257 > 100 µM

CC(=O)N1CCC2(c3ccccc3N(C(C)=O)C2c2ccc(O)cc2)C1C(=O)O (stereo not drawn)
inactive: HCC 2998 > 100 µM | HL-60 > 100 µM | LOX IMVI > 100 µM | M14 > 100 µM | NCI-H23 > 100 µM | RPMI-8226 > 100 µM | SF-539 > 100 µM | SK-MEL-2 > 100 µM | SNB-19 > 100 µM | SNB-75 > 100 µM | SW-620 > 100 µM | UACC-257 > 100 µM

Fc1ccccc1C1SCc2nc3ccccc3n21 (stereo not drawn)
inactive: CAKI-1 44.8 µM | HCC 2998 75.2 µM | HL-60 11.9 µM | IGROV-1 60.5 µM | NCI-H23 33.2 µM | RPMI-8226 25.5 µM | SF-539 > 100 µM | SK-MEL-2 76.4 µM | SNB-19 86.7 µM | SNB-75 72.8 µM | SW-620 > 100 µM | UACC-257 33.7 µM

O=C1CCC2(c3ccc(Cl)cc3)Nc3ncccc3N12 (stereo not drawn)
inactive: CAKI-1 > 100 µM | HCC 2998 > 100 µM | HL-60 > 100 µM | IGROV-1 > 100 µM | LOX IMVI > 100 µM | M14 > 100 µM | NCI-H23 > 100 µM | RPMI-8226 > 100 µM | SF-539 > 100 µM | SK-MEL-2 > 100 µM | SNB-75 79.8 µM | SW-620 > 100 µM | UACC-257 > 100 µM

CC(C)(c1cn(Cc2ccccc2)c2ccccc12)c1cn(Cc2ccccc2)c2ccccc12
inactive: CAKI-1 > 100 µM | HL-60 > 100 µM | IGROV-1 > 100 µM | LOX IMVI > 100 µM | M14 > 100 µM | NCI-H23 > 100 µM | RPMI-8226 > 100 µM | SF-539 > 100 µM | SNB-75 17.3 µM | SW-620 > 100 µM

O=C(Cc1nc2ccccc2s1)Nc1ccc(Cl)cc1
inactive: CAKI-1 > 100 µM | HCC 2998 > 100 µM | HL-60 > 100 µM | IGROV-1 > 100 µM | LOX IMVI 60.8 µM | M14 77.1 µM | NCI-H23 > 100 µM | SF-539 > 100 µM | SK-MEL-2 88.9 µM | SNB-19 > 100 µM | SNB-75 91.6 µM | SW-620 > 100 µM | UACC-257 > 100 µM

CC(C)(C)OC1=C(OC(C)(C)C)C(O)(c2ccccc2)C1=O (stereo not drawn)
inactive: HCC 2998 > 100 µM | HL-60 > 100 µM | IGROV-1 > 100 µM | LOX IMVI > 100 µM | M14 > 100 µM | NCI-H23 > 100 µM | RPMI-8226 > 100 µM | SF-539 > 100 µM | SNB-19 > 100 µM | SNB-75 > 100 µM | SW-620 > 100 µM

COC(=O)C1=C(C(=O)OC)C2(C3C(SC)=CC(C)(C)CC3S1)N(Cc1ccccc1)CCN2Cc1ccccc1 (stereo not drawn)
inactive: CAKI-1 > 100 µM | IGROV-1 > 100 µM | LOX IMVI > 100 µM | M14 > 100 µM | NCI-H23 > 100 µM | RPMI-8226 18.3 µM | SF-539 > 100 µM | SK-MEL-2 > 100 µM | SNB-19 > 100 µM | SNB-75 > 100 µM | SW-620 > 100 µM | UACC-257 > 100 µM

C[N+]1(C)CCCC1C(=O)[O-] (stereo not drawn)
inactive: HCC 2998 > 100 µM | HL-60 > 100 µM | IGROV-1 > 100 µM | LOX IMVI > 100 µM | M14 > 100 µM | NCI-H23 > 100 µM | RPMI-8226 > 100 µM | SF-539 > 100 µM | SK-MEL-2 > 100 µM | SNB-19 > 100 µM | SNB-75 > 100 µM | SW-620 > 100 µM | UACC-257 > 100 µM
